Laboratory results as given in the supplement of paper PMC10132981, “Formate overflow drives toxic folate trapping in MTHFD1 inhibited cancer cells” (Nature Metabolism, 2023).
± gives the standard deviation of the averaged measurements.

Key:
SW620 [1] = experiment: cell viability relative to vehicle (resazurin, 96 h); higher = more viable
Description: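 SW620 WT or MTHFD2-/- cells were treated for 96 h with a compound dilution series (log10 M) in RPMI with normal or dialysed FBS. Viability was read by resazurin and is given as % of vehicle.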

SW620 [2] = experiment: cell viability relative to lowest-dose well (resazurin, 96 h); higher = more viable; conditions: RPMI + 10% FBS
How it was run: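 HCT116 (500 cells/well) or SW620 (1,000 cells/well) cells were seeded in 50 µl RPMI with 10% FBS plus a metabolite supplement in 384-well plates. Compounds were dispensed from 10 mM DMSO stocks as dilution series, and plates were incubated 96 h at 37 °C, 5% CO2. Viability was read as resazurin (10 µg ml^−1) conversion to resorufin after 5 h, by fluorescence at 595 nm. Values are percent of the lowest-dose well, with independent replicate cultures. Viability was read by resazurin-to-resorufin conversion and normalised to the lowest-dose vehicle well (=100%).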

Cc1c(N2CCN(C)[C@@H](C)C2)ccc2c3c(c(=O)oc12)CN(C(=O)c1ccc(NS(C)(=O)=O)c(OC(F)(F)F)c1)CC3
Conditions | cell viability [%]
SW620 [1], log10 compound concentration (M): -9.29409, supplement / serum: RPMI + Dialyzed FBS, base medium: RPMI-1640 | 84.9 ± 13
SW620 [1], log10 compound concentration (M): -9.29409, supplement / serum: RPMI + Normal FBS, base medium: RPMI-1640 | 77 ± 11
SW620 [1], log10 compound concentration (M): -9.77121, supplement / serum: 50μM Hypoxanthine, base medium: RPMI + dialysed FBS | 85.8 ± 28
SW620 [1], log10 compound concentration (M): -9.77121, supplement / serum: 50μM Thymidine + 50μM Hypoxanthine, base medium: RPMI + dialysed FBS | 86.4 ± 9.4
SW620 [1], log10 compound concentration (M): -9.77121, supplement / serum: 50μMThymidine, base medium: RPMI + dialysed FBS | 84.3 ± 26
SW620 [1], log10 compound concentration (M): -9.77121, supplement / serum: No metabolite, base medium: RPMI + dialysed FBS | 77 ± 17
SW620 [1], log10 compound concentration (M): -9.77121, supplement / serum: RPMI + Dialyzed FBS + 50μM Hypoxanthine, base medium: RPMI-1640 | 85.8 ± 28
SW620 [1], log10 compound concentration (M): -9.77121, supplement / serum: RPMI + Dialyzed FBS, base medium: RPMI-1640 | 77 ± 17
SW620 [1], log10 compound concentration (M): -9.77121, supplement / serum: RPMI + Normal FBS, base medium: RPMI-1640 | 75.8 ± 12
SW620 [2], 0.001 µM, metabolite supplement: 1mM sodium formate | 100 ± 2.4
SW620 [2], 0.001 µM, metabolite supplement: 50uM thymidine | 99.1 ± 2.6
SW620 [2], 0.001 µM, metabolite supplement: 50uM thymidine + 1mM sodium formate | 99.4 ± 5
SW620 [2], 0.001 µM, metabolite supplement: 50uM thymidine + 250uM hypoxanthine | 100 ± 1.9
SW620 [2], 0.001 µM, metabolite supplement: 250uM hypoxanthine | 100 ± 3.8
SW620 [2], 0.001 µM, metabolite supplement: vehicle | 97 ± 2.5
SW620 [2], 0.00301 µM, metabolite supplement: 1mM sodium formate | 98.27 ± 0.76
SW620 [2], 0.00301 µM, metabolite supplement: 50uM thymidine | 97.2 ± 3.5
SW620 [2], 0.00301 µM, metabolite supplement: 50uM thymidine + 1mM sodium formate | 102 ± 4.1
SW620 [2], 0.00301 µM, metabolite supplement: 50uM thymidine + 250uM hypoxanthine | 102.3 ± 0.31
SW620 [2], 0.00301 µM, metabolite supplement: 250uM hypoxanthine | 96.6 ± 5.2
SW620 [2], 0.00301 µM, metabolite supplement: vehicle | 97.3 ± 2.9
SW620 [2], 0.00903 µM, metabolite supplement: 1mM sodium formate | 97.8 ± 2.1
SW620 [2], 0.00903 µM, metabolite supplement: 50uM thymidine | 96 ± 5.5
SW620 [2], 0.00903 µM, metabolite supplement: 50uM thymidine + 1mM sodium formate | 101 ± 2.7
SW620 [2], 0.00903 µM, metabolite supplement: 50uM thymidine + 250uM hypoxanthine | 102 ± 1.4
SW620 [2], 0.00903 µM, metabolite supplement: 250uM hypoxanthine | 98.9 ± 4.9
SW620 [2], 0.00903 µM, metabolite supplement: vehicle | 96.4 ± 4.2
SW620 [2], 0.0271 µM, metabolite supplement: 1mM sodium formate | 100 ± 2
SW620 [2], 0.0271 µM, metabolite supplement: 50uM thymidine | 99.6 ± 3.1
SW620 [2], 0.0271 µM, metabolite supplement: 50uM thymidine + 1mM sodium formate | 102 ± 3
SW620 [2], 0.0271 µM, metabolite supplement: 50uM thymidine + 250uM hypoxanthine | 104 ± 1.5
SW620 [2], 0.0271 µM, metabolite supplement: 250uM hypoxanthine | 99.5 ± 4
SW620 [2], 0.0271 µM, metabolite supplement: vehicle | 97.6 ± 1.1
SW620 [2], 0.0816 µM, metabolite supplement: 1mM sodium formate | 101 ± 0.87
SW620 [2], 0.0816 µM, metabolite supplement: 50uM thymidine | 97.1 ± 4.2
SW620 [2], 0.0816 µM, metabolite supplement: 50uM thymidine + 1mM sodium formate | 105 ± 3.8
SW620 [2], 0.0816 µM, metabolite supplement: 50uM thymidine + 250uM hypoxanthine | 107 ± 1.5
SW620 [2], 0.0816 µM, metabolite supplement: 250uM hypoxanthine | 97.4 ± 3
SW620 [2], 0.0816 µM, metabolite supplement: vehicle | 95.4 ± 3.5
SW620 [2], 0.245 µM, metabolite supplement: 1mM sodium formate | 97.7 ± 3.2
SW620 [2], 0.245 µM, metabolite supplement: 50uM thymidine | 85.4 ± 0.99
SW620 [2], 0.245 µM, metabolite supplement: 50uM thymidine + 1mM sodium formate | 104 ± 2.2
SW620 [2], 0.245 µM, metabolite supplement: 50uM thymidine + 250uM hypoxanthine | 107.8 ± 0.7
SW620 [2], 0.245 µM, metabolite supplement: 250uM hypoxanthine | 99.9 ± 4
SW620 [2], 0.245 µM, metabolite supplement: vehicle | 86.4 ± 2.3
SW620 [2], 0.737 µM, metabolite supplement: 1mM sodium formate | 95.9 ± 4
SW620 [2], 0.737 µM, metabolite supplement: 50uM thymidine | 69.5 ± 2.1
SW620 [2], 0.737 µM, metabolite supplement: 50uM thymidine + 1mM sodium formate | 100 ± 1.2
SW620 [2], 0.737 µM, metabolite supplement: 50uM thymidine + 250uM hypoxanthine | 108 ± 1.3
SW620 [2], 0.737 µM, metabolite supplement: 250uM hypoxanthine | 97 ± 3.2
SW620 [2], 0.737 µM, metabolite supplement: vehicle | 71.13 ± 0.45
SW620 [2], 2.21 µM, metabolite supplement: 1mM sodium formate | 89 ± 1.1
SW620 [2], 2.21 µM, metabolite supplement: 50uM thymidine | 61.5 ± 3.3
SW620 [2], 2.21 µM, metabolite supplement: 50uM thymidine + 1mM sodium formate | 102 ± 4.7
SW620 [2], 2.21 µM, metabolite supplement: 50uM thymidine + 250uM hypoxanthine | 106 ± 2.1
SW620 [2], 2.21 µM, metabolite supplement: 250uM hypoxanthine | 84.7 ± 4.6
SW620 [2], 2.21 µM, metabolite supplement: vehicle | 63.2 ± 2.9
SW620 [2], 6.65 µM, metabolite supplement: 1mM sodium formate | 62.4 ± 5.1
SW620 [2], 6.65 µM, metabolite supplement: 50uM thymidine | 58.1 ± 3.9
SW620 [2], 6.65 µM, metabolite supplement: 50uM thymidine + 1mM sodium formate | 101 ± 6.5
SW620 [2], 6.65 µM, metabolite supplement: 50uM thymidine + 250uM hypoxanthine | 102 ± 2.5
SW620 [2], 6.65 µM, metabolite supplement: 250uM hypoxanthine | 66.4 ± 4.7
SW620 [2], 6.65 µM, metabolite supplement: vehicle | 60.8 ± 5.5
SW620 [2], 20 µM, metabolite supplement: 1mM sodium formate | 39.2 ± 3.1
SW620 [2], 20 µM, metabolite supplement: 50uM thymidine | 54.3 ± 3.2
SW620 [2], 20 µM, metabolite supplement: 50uM thymidine + 1mM sodium formate | 89.9 ± 1.1
SW620 [2], 20 µM, metabolite supplement: 50uM thymidine + 250uM hypoxanthine | 88.6 ± 7.4
SW620 [2], 20 µM, metabolite supplement: 250uM hypoxanthine | 44.2 ± 6
SW620 [2], 20 µM, metabolite supplement: vehicle | 55 ± 4.3
